Measurements taken from patent US20060216295A1, “Methods of identifying therapeutic targets for the treatment of vulvovaginal atrophy” (Wyeth, priority 2005, published 2006).
Read-outs that look alike come from different tables or passages of the source.

Legend:
vaginal epithelium [1] = format: in vivo, rat; conditions: for whether the compound mimics the action of 17β-estradiol in the vagina: ovariectomized rats treated intravaginally, Example 3
Experimental: FIG. 4 represents H&E stained cross-sections of rat vagina after 5 days of intravaginal treatment with 100 nM betacellulin in 2% carbomer vehicle.
These histologic changes are the hallmark of a vaginal estrogenic response. Tables 2 and 3 detail the studies performed with mersalyl and betacellulin. The body of the table indicates the number of positive histological changes over the number of samples evaluated.
Table 4 includes the studies performed with the PHD/FIH non-specific inhibitor DMOG, whereas Table 5 is the studies performed with 2,4-DPD.
Table 6 includes the studies performed with the FIH specific inhibitor 3,4-dihydroxybenzoate (3,4-DHB), whereas Table 7 outlines the studies performed with N-oxalyl-D-alanine (NODA).

Betacellulin = experiment: RNA expression analysis (Affymetrix RAE230A/B arrays) of vaginal vault of ovariectomized rats after 17β-estradiol; format: in vivo, rat; conditions: Betacellulin mRNA, single dose 20 μg/kg 17β-estradiol subcutaneously
From the text: RNA was harvested from the entire vaginal vault at each time point and was subjected to RNA expression analysis. Five micrograms of total RNA were used to generate biotin labeled cRNA using an oligo T7 primer in a reverse transcription reaction followed by in vitro transcription reaction with biotin labeled UTP and CTP. Ten micrograms of cRNA were fragmented and hybridized to RAE230A and RAE230B arrays (Affymetrix, Santa Clara, Calif.). Hybridized arrays were stained according to manufacturer's protocols on a Fluidics Station 450 and scanned on an Affymetrix scanner 3000. All array images were visually inspected for defects and quality. Signal values were determined using Gene Chip Operating System 1.0 (GCOS, Affymetrix). For each array, all probe sets were normalized to a mean signal intensity value of 100. The default GCOS statistical values were used for all analyses. Signal values and absolute detection calls were imported into Genesis 2.0 (GeneLogic, Gaithersburg, Md.) for analysis.
A gene was considered to be detectible if the mean expression in either the treated or untreated group was 50 signal units and the percentage of samples with a Present (P) call as determined by GCOS default settings was greater than or equal to 25%. A gene was considered to be regulated if the difference between the treated and untreated groups met the following criteria: (1) the gene had to be detected in at least 25% of the samples of at least one of the groups, (2) the fold change between was at least 1.7, and (3) the p-value based on a T-test had to be ≦0.01. Nine hundred fifty-nine qualifiers on the RAE230A array and 707 qualifiers on the RAE230B array met these conditions.
Based on the time course of response and the biological function associated with them, HIF1α and betacellulin were selected as candidate targets for treatment of vulvovaginal atrophy. These proteins were selected for further study because they were regulated by estradiol after 6 hours of treatment and thus can be expected to be at the top of the estrogenic signaling cascade.

vaginal epithelium [2] = format: in vivo, rat; conditions: intravaginal; 50 nM 17β-estradiol, 10 nM recombinant mouse betacellulin, 1 μM Mersalyl; 2% carbomer vehicle
[3] = test system: HIF-regulated transcripts; conditions: in vitro; cited from earlier work

Molecule: CCOC(=O)c1ccnc(C(=O)OCC)c1 [2,4-DPD, 2,4-pyridinedicarboxylic acid, diethyl ester]
- number of positive histological responses/number of samples evaluated (vaginal epithelium [1]; OVX rat, 2,4-DPD 0.1 μM intravaginal, Study 2): 0/4
- number of positive histological responses/number of samples evaluated (vaginal epithelium [1]; OVX rat, 2,4-DPD 1 μM intravaginal, Study 2): 1/4
- number of positive histological responses/number of samples evaluated (vaginal epithelium [1]; OVX rat, 2,4-DPD 10 μM intravaginal, Study 1): 0/4
- number of positive histological responses/number of samples evaluated (vaginal epithelium [1]; OVX rat, 2,4-DPD 10 μM intravaginal, Study 2): 1/3
- number of positive histological responses/number of samples evaluated (vaginal epithelium [1]; OVX rat, 2,4-DPD 10 μM intravaginal, Study 3): 1/4
- whether the compound mimics the action of 17β-estradiol in the vagina (vaginal epithelium [1]): variable results

Molecule: O=C(O)c1ccc(O)c(O)c1 [3,4-DHB, 3,4-dihydroxybenzoate]
- number of positive histological responses/number of samples evaluated (vaginal epithelium [1]; OVX rat, 3,4-DHB 10 μM intravaginal, Study 1): 1/4
- number of positive histological responses/number of samples evaluated (vaginal epithelium [1]; OVX rat, 3,4-DHB 100 μM intravaginal, Study 1): 0/4
- number of positive histological responses/number of samples evaluated (vaginal epithelium [1]; OVX rat, 3,4-DHB 1 mM intravaginal, Study 1): 0/4
- number of positive histological responses/number of samples evaluated (vaginal epithelium [1]; OVX rat, 3,4-DHB 1 mM intravaginal, Study 2): 0/4
- number of positive histological responses/number of samples evaluated (vaginal epithelium [1]; OVX rat, 3,4-DHB 1 mM intravaginal, Study 3): 0/3
- number of positive histological responses/number of samples evaluated (vaginal epithelium [1]; OVX rat, 3,4-DHB 10 mM intravaginal, Study 1): 4/4
- number of positive histological responses/number of samples evaluated (vaginal epithelium [1]; OVX rat, 3,4-DHB 10 mM intravaginal, Study 2): 1/4
- number of positive histological responses/number of samples evaluated (vaginal epithelium [1]; OVX rat, 3,4-DHB 10 mM intravaginal, Study 3): 2/3
- number of positive histological responses/number of samples evaluated (vaginal epithelium [1]; OVX rat, 3,4-DHB 10 mM intravaginal, Study 4): 1/3
- whether the compound mimics the action of 17β-estradiol in the vagina (vaginal epithelium [1]): variable results

Molecule: C[C@]12CC[C@@H]3c4ccc(O)cc4CC[C@H]3[C@@H]1CC[C@@H]2O [17β-estradiol]
- Fold Change Over Vehicle (Betacellulin; 6 hour): +2.9
- Fold Change Over Vehicle (Betacellulin; 72 hour): +2.8
- Fold Change Over Vehicle (Betacellulin; 120 hour (5 day)): +1.6
- histology of rat vagina (H&E stained cross-sections) compared to vehicle, FIG. 1 (vaginal epithelium [2]): positive effect

Molecule: COC(=O)CNC(=O)C(=O)OC [DMOG, N-(methoxyooxoacetyl)-glycine methyl ester]
- number of positive histological responses/number of samples evaluated (vaginal epithelium [1]; OVX rat, DMOG 1 μM intravaginal, Study 2): 0/4
- number of positive histological responses/number of samples evaluated (vaginal epithelium [1]; OVX rat, DMOG 10 μM intravaginal, Study 1): 3/3
- number of positive histological responses/number of samples evaluated (vaginal epithelium [1]; OVX rat, DMOG 10 μM intravaginal, Study 2): 2/3
- number of positive histological responses/number of samples evaluated (vaginal epithelium [1]; OVX rat, DMOG 10 μM intravaginal, Study 3): 2/4
- number of positive histological responses/number of samples evaluated (vaginal epithelium [1]; OVX rat, DMOG 100 μM intravaginal, Study 1): 0/3
- number of positive histological responses/number of samples evaluated (vaginal epithelium [1]; OVX rat, DMOG 1 mM intravaginal, Study 1): 0/3
- number of positive histological responses/number of samples evaluated (vaginal epithelium [1]; OVX rat, DMOG 1 mM intravaginal, Study 3): 1/4
- whether the compound mimics the action of 17β-estradiol in the vagina (vaginal epithelium [1]): variable results

Molecule: C[C@@H](NC(=O)C(=O)O)C(=O)O [NODA, N-oxalyl-D-alanine]
- number of positive histological responses/number of samples evaluated (vaginal epithelium [1]; OVX rat, NODA 10 μM intravaginal, Study 1): 1/4
- number of positive histological responses/number of samples evaluated (vaginal epithelium [1]; OVX rat, NODA 10 μM intravaginal, Study 2): 1/3
- number of positive histological responses/number of samples evaluated (vaginal epithelium [1]; OVX rat, NODA 10 μM intravaginal, Study 3): 0/3
- number of positive histological responses/number of samples evaluated (vaginal epithelium [1]; OVX rat, NODA 100 μM intravaginal, Study 1): 0/4
- number of positive histological responses/number of samples evaluated (vaginal epithelium [1]; OVX rat, NODA 100 μM intravaginal, Study 2): 0/3
- number of positive histological responses/number of samples evaluated (vaginal epithelium [1]; OVX rat, NODA 100 μM intravaginal, Study 3): 0/3
- number of positive histological responses/number of samples evaluated (vaginal epithelium [1]; OVX rat, NODA 1 mM intravaginal, Study 1): 0/4
- number of positive histological responses/number of samples evaluated (vaginal epithelium [1]; OVX rat, NODA 1 mM intravaginal, Study 2): 0/3
- number of positive histological responses/number of samples evaluated (vaginal epithelium [1]; OVX rat, NODA 1 mM intravaginal, Study 3): 1/3
- number of positive histological responses/number of samples evaluated (vaginal epithelium [1]; OVX rat, NODA 1 mM intravaginal, Study 4): 1/4
- number of positive histological responses/number of samples evaluated (vaginal epithelium [1]; OVX rat, NODA 10 mM intravaginal, Study 1): 3/4
- number of positive histological responses/number of samples evaluated (vaginal epithelium [1]; OVX rat, NODA 10 mM intravaginal, Study 2): 0/3
- number of positive histological responses/number of samples evaluated (vaginal epithelium [1]; OVX rat, NODA 10 mM intravaginal, Study 3): 1/3
- number of positive histological responses/number of samples evaluated (vaginal epithelium [1]; OVX rat, NODA 10 mM intravaginal, Study 4): 0/4
- whether the compound mimics the action of 17β-estradiol in the vagina (vaginal epithelium [1]): variable results

Molecule: CODDD: peptide corresponding to amino acids 549-582 of HIF1α (C-terminal oxygen dependent degradation domain), FIG. 3
- upregulation of HIF-regulated transcripts [3]: capable of upregulating HIF-regulated transcripts in vitro

B1: Betacellulin: mouse betacellulin (Asp32-Gln118) generated in E. coli by R&D Systems (catalog # 1025-CE); member of the EGF family (protein)
chain: DGNTTRTPETNGSLCGAPGENCTGTTPRQKVKTHFSRCPKQYKHYCIHGRCRFVVDEQTPSCICEKGYFGARCERVDLFYLQQDRGQ
modifications: Mouse betacellulin peptide (asp32-gln118)
notes: mouse betacellulin (Asp32-Gln118) generated in E. coli by R&D Systems (catalog # 1025-CE); member of the EGF family
- histology of rat vagina (H&E stained cross-sections) compared to vehicle, FIG. 1 (vaginal epithelium [2]): positive effect
- number of positive histological changes over the number of samples evaluated (vaginal epithelium [1]; Betacellulin dose 10 nM intravaginal, Study 1): 3/3
- number of positive histological changes over the number of samples evaluated (vaginal epithelium [1]; Betacellulin dose 10 nM intravaginal, Study 2): 0/4
- number of positive histological changes over the number of samples evaluated (vaginal epithelium [1]; Betacellulin dose 10 nM intravaginal, Study 3): 3/3
- number of positive histological changes over the number of samples evaluated (vaginal epithelium [1]; Betacellulin dose 100 nM intravaginal, Study 2): 3/4
- number of positive histological changes over the number of samples evaluated (vaginal epithelium [1]; Betacellulin dose 100 nM intravaginal, Study 3): 2/3
- number of positive histological changes over the number of samples evaluated (vaginal epithelium [1]; Betacellulin dose 1 μM intravaginal, Study 2): 2/4
- effect on the rat vaginal epithelium, in words (vaginal epithelium [1]; ovariectomized rats): mimics the effects of estrogen on the rat vaginal epithelium
- histological change of the vaginal epithelial layer compared to vehicle (vaginal epithelium [1]; rats, intravaginal dosing, Example 2): clear thickening and differentiation of the vaginal epithelial layer

B2: NODDD: peptide corresponding to amino acids 343417 of HIF1α (N-terminal oxygen dependent degradation domain), FIG. 3 (peptide)
chain: SGIIQHDLIFSLQQTECVLKPVESSDMKMTQLFTKVESEDTSSLFDKLKKEPDALTLLAPAAGDTIISLDFGSND
modifications: NODDD sequence from Hif1a (amino acids 343-417)
- upregulation of HIF-regulated transcripts [3]: capable of upregulating HIF-regulated transcripts in vitro
